Data published in patent US20130116304A1, “TMEM195 ENCODES FOR TETRAHYDROBIOPTERIN-DEPENDENT ALKYLGLYCEROL MONOOXYGENASE ACTIVITY” (priority 2010, published 2013).

Legend:
[1] = target: T1, alkylglycerol monooxygenase (TMEM195) (Homo sapiens, UniProt Q6ZNB7); assay: Alkylglycerol monooxygenase activity generated in CHO cells by transfection of TMEM195 and ALDH3A2 (pyrenedecanoic acid, HPLC with fluorescence detection); type: biochemical; details: mean±SEM
T1 construct: host or cells: CHO-K1 cells, transiently transfected with ExGen 500; pellets opened in water with 0.5% CHAPS
T1 sequence (Q6ZNB7 1-445): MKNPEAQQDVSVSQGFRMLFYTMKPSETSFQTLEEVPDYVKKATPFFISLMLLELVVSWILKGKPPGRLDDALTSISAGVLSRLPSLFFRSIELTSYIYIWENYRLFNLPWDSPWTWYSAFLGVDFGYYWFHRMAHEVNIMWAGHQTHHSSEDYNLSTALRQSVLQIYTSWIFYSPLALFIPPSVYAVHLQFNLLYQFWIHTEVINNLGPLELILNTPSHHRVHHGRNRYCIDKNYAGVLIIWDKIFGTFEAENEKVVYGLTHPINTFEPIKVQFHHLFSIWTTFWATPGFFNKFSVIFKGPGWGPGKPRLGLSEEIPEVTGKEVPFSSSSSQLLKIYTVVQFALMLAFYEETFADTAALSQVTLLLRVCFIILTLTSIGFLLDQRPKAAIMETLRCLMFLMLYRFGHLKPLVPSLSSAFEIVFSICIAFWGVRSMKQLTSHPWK
Protocol: A pyrene-labelled alkylglycerol (1-O-pyrenedecyl-sn-glycerol) was used as substrate which was converted to pyrenedecanal by alkylglycerol monooxygenase. […] The reaction was started by addition of the protein and incubated for 60 min at 37° C. in the dark. Negative controls without protein (concentration of pyrenedecanoic acid <1 nM) and rat liver microsomes as positive controls were always run in parallel. After addition of 30 μl methanol and centrifugation for 5 min at 16,000 g, 10 μl of the sample were injected to a Zorbax XDB-C8 rapid resolution column (Agilent Technologies, Vienna, Austria) using an Agilent 1200 Series HPLC system. […] Pyrenedecanoic acid was detected by fluorescence (340 nm excitation and 400 nm emission, detection limit 1 nM).
80,000 Chinese hamster ovary Ki cells (CHO-K1, LGC Promochem, Wesel, Germany) were transfected with 1 μg of expression plasmids or plasmid pools using the ExGen 500 transfection agent (Fermentas, St. Leon-Rot, Germany) and standard protocols. […] For control of transfection efficiency, a plasmid encoding enhanced green fluorescent protein (pEGFP-N1, Clonetech, Mountain View, Calif., USA) was used and fluorescence quantified directly in the culture plates by a Typhoon 9410 scanner (GE Healthcare). […] Alkylglycerol monooxygenase activity (22) and fatty aldehyde dehydrogenase activity (31) were then determined as described.

[2] = target: T2, alkylglycerol monooxygenase (Rattus norvegicus, UniProt A0JPQ8); details: rat liver microsomes; from reference (22); cited from earlier work
T2 construct: those found in rat liver microsomes (KM 8.90 μM for 1-O-pyrenedecylglycerol); from tissue; host or cells: rat liver microsomes
T2 sequence (A0JPQ8 1-447): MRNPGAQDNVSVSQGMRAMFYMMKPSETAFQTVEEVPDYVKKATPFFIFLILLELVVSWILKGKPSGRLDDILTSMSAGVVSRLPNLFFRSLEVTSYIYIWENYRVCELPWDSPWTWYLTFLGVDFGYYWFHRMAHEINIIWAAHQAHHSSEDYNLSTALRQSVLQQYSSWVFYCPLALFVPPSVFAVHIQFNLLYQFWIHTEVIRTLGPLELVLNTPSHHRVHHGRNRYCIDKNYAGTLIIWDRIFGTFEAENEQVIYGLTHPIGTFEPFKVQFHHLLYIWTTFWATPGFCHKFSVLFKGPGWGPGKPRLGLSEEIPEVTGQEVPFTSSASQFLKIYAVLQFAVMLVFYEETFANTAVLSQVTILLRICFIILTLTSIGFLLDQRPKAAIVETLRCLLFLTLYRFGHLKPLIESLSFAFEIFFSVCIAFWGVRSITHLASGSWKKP

[3] = substrate: C[C@H](O)[C@H](O)[C@H]1CNc2nc(N)[nH]c(=O)c2N1; assay: purified protein, by the assay type; details: other: activity generated in CHO cells by transfection of TMEM195 and ALDH3A2; KM for substrate or cofactor; mean±SEM; 37.0 °C

Work on `c1cnc2c(c1)ccc1cccnc12` [1,10-Phenanthroline] yielded an IC50 ([1]; activity generated in CHO cells by transfection, read-out: 50% inhibition of alkylglycerol monooxygenase activity) of 1390 ± 380 nM.

In the case of `OC[C@H](O)COCCCCCCCCCCc1ccc2ccc3cccc4ccc1c2c34` [1-O-pyrenedecylglycerol, 1-O-pyrenedecyl-sn-glycerol], the Km [2] is listed as 8.9 µM and the Km ([1]; activity generated in CHO cells by transfection of TMEM195 and ALDH3A2, KM for substrate or cofactor, read-out: Michaelis Menten constant (KM)) is listed as 11 ± 1.1 µM.

In the case of `C[C@H](O)[C@H](O)[C@H]1CNc2nc(N)[nH]c(=O)c2N1` [tetrahydrobiopterin], the Km [2] is given as 2.6 µM.

B1: alkylglycerol monooxygenase (TMEM195) (Homo sapiens) (protein)
chain: T1 sequence (Q6ZNB7 1-445)
Work on B1 yielded a Km [3] of 2.58 ± 0.42 µM.
